In US12077503B2, “Substituted cyclic amides and their use as herbicides” (FMC CORPORATION, priority 2015, dated 2024):

Key:
Format in all cases: in vivo
[1] = system: Kochia (Kochia scoparia); assay: Test A preemergence; settings: Bassia scoparia, pre-emergence, 240 h
Method in brief: (§1)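 Greenhouse, ~10 d after spray; visual injury vs untreated controls, 0 = no effect, 100 = complete control. Preemergence: directed soil spray over planted seeds. Postemergence: plants 2–10 cm, 1–2 leaf stage. Loam/sand blend. Compound in non-phytotoxic solvent with surfactant.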

[2] = system: ragweed (common ragweed, Ambrosia elatior); assay: Test A preemergence; settings: Ambrosia artemisiifolia, pre-emergence, 240 h
Method in brief: as §1

[3] = system: giant foxtail (Setaria faberii); assay: Test A preemergence; settings: Setaria faberi, pre-emergence, 240 h
Method in brief: as §1

[4] = system: ryegrass, Italian (Italian ryegrass, Lolium multiflorum); assay: Test A preemergence; settings: Lolium multiflorum, pre-emergence, 240 h
Method in brief: as §1

[5] = system: pigweed (Amaranthus retroflexus); assay: Test A preemergence; settings: Amaranthus retroflexus, pre-emergence, 240 h
[6] = system: barnyardgrass (Echinochloa crus-galli); assay: Test A preemergence; settings: Echinochloa crus-galli, pre-emergence, 240 h
Method in brief: as §1

[7] = system: Kochia (Kochia scoparia); assay: Test A postemergence; settings: Bassia scoparia, post-emergence, 240 h, read-out: Plant response rating, Kochia
Method in brief: as §1

[8] = system: ragweed (common ragweed, Ambrosia elatior); assay: Test A postemergence; settings: Ambrosia artemisiifolia, post-emergence, 240 h, read-out: Plant response rating, Ragweed
Method in brief: as §1

[9] = system: giant foxtail (Setaria faberii); assay: Test A postemergence; settings: Setaria faberi, post-emergence, 240 h, read-out: Plant response rating, Foxtail, Giant
Method in brief: as §1

[10] = system: Galium (catchweed bedstraw, Galium aparine); assay: Test A postemergence; settings: Galium, post-emergence, 240 h, read-out: Plant response rating, Galium
Method in brief: as §1

[11] = system: ryegrass, Italian (Italian ryegrass, Lolium multiflorum); assay: Test A postemergence; settings: Lolium multiflorum, post-emergence, 240 h, read-out: Plant response rating, Ryegrass, Italian
Method in brief: as §1

[12] = system: corn (Zea mays); assay: Test A postemergence; settings: Zea mays, post-emergence, 240 h
Method in brief: as §1

[13] = system: pigweed (Amaranthus retroflexus); assay: Test A postemergence; settings: Amaranthus retroflexus, post-emergence, 240 h, read-out: Plant response rating, Pigweed
Method in brief: as §1

[14] = system: barnyardgrass (Echinochloa crus-galli); assay: Test A postemergence; settings: Echinochloa crus-galli, post-emergence, 240 h, read-out: Plant response rating, Barnyardgrass
Method in brief: as §1

[15] = system: blackgrass (Alopecurus myosuroides); assay: Test A postemergence; settings: Alopecurus myosuroides, post-emergence, 240 h, read-out: Plant response rating, Blackgrass
Method in brief: as §1

[16] = system: wheat (Triticum aestivum); assay: Test A postemergence; settings: Triticum aestivum, post-emergence, 240 h, read-out: Plant response rating, Wheat
Method in brief: as §1

[17] = system: sedge, umbrella (small-flower umbrella sedge, Cyperus difformis); assay: Test B flooded paddy test; settings: Cyperus difformis, 250 g ai/ha, Flood; 0 to 100 scale where 0 is no effect and 100 is complete control; read-out: Sedge, Umbrella plant response rating
Method in brief: (§2)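 Flooding to 3 cm over soil accompanied treatment, which consisted of adding compound to the standing water around 2-leaf plants; depth was then maintained. Visual assessment versus controls followed at 13 to 15 d (scale 0–100, 0 meaning no effect).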

[18] = system: ducksalad (Heteranthera limosa); assay: Test B flooded paddy test; settings: Heteranthera limosa, 250 g ai/ha, Flood; 0 to 100 scale where 0 is no effect and 100 is complete control; read-out: Ducksalad plant response rating
Method in brief: as §2

[19] = system: rice (Oryra sativa); assay: Test B flooded paddy test; settings: Oryza sativa, 250 g ai/ha, Flood; 0 to 100 scale where 0 is no effect and 100 is complete control; read-out: Rice plant response rating
Method in brief: as §2

[20] = system: barnyardgrass (Echinochloa crus-galli); assay: Test B flooded paddy test; settings: Echinochloa crus-galli, 250 g ai/ha, Flood; 0 to 100 scale where 0 is no effect and 100 is complete control; read-out: Barnyardgrass plant response rating
Method in brief: as §2

[21] = 125 g ai/ha, Postemergence, visual injury after approximately 10 d, 0 to 100 scale where 0 is no effect and 100 is complete control
[22] = 500 g ai/ha, postemergence, visual injury, 0 to 100 scale (0 no effect, 100 complete control), approx. 10 d

`CSc1ccccc1NC(=O)[C@H]1C(=O)N(C)C[C@@H]1c1cc(C)c(Br)c(C)c1` [Compound 1025] was tested, and the pest or weed control at 125 g/ha ([1]; 125 g ai/ha, Preemergence, visual injury rating after approximately 10 d, read-out: Kochia plant response rating (0 to 100 scale, 0 is no effect, 100 is complete control)) was 0%, the pest or weed control at 500 g/ha ([1]; 500 g ai/ha, preemergence, visual injury rating about 10 d after treatment, 0 to 100 scale (0 no effect, 100 complete control), read-out: Kochia plant response rating) was 20% and the pest or weed control at 125 g/ha ([2]; 125 g ai/ha, Preemergence, visual injury rating after approximately 10 d, read-out: Ragweed plant response rating (0 to 100 scale, 0 is no effect, 100 is complete control)) was 0%. The pest or weed control at 500 g/ha ([2]; 500 g ai/ha, preemergence, visual injury rating about 10 d after treatment, 0 to 100 scale (0 no effect, 100 complete control), read-out: Ragweed plant response rating) was 0%, the pest or weed control at 125 g/ha ([3]; 125 g ai/ha, Preemergence, visual injury rating after approximately 10 d, read-out: Foxtail, Giant plant response rating (0 to 100 scale, 0 is no effect, 100 is complete control)) was 90% and the pest or weed control at 500 g/ha ([3]; 500 g ai/ha, preemergence, visual injury rating about 10 d after treatment, 0 to 100 scale (0 no effect, 100 complete control), read-out: Foxtail, Giant plant response rating) was 90%. It also gave a pest or weed control at 125 g/ha ([4]; 125 g ai/ha, Preemergence, visual injury rating after approximately 10 d, read-out: Ryegrass, Italian plant response rating (0 to 100 scale, 0 is no effect, 100 is complete control)) of 0%, a pest or weed control at 500 g/ha ([4]; 500 g ai/ha, preemergence, visual injury rating about 10 d after treatment, 0 to 100 scale (0 no effect, 100 complete control), read-out: Ryegrass, Italian plant response rating) of 30% and a pest or weed control at 125 g/ha ([5]; 125 g ai/ha, Preemergence, visual injury rating after approximately 10 d, read-out: Pigweed plant response rating (0 to 100 scale, 0 is no effect, 100 is complete control)) of 0%. It also gave a pest or weed control at 500 g/ha ([5]; 500 g ai/ha, preemergence, visual injury rating about 10 d after treatment, 0 to 100 scale (0 no effect, 100 complete control), read-out: Pigweed plant response rating) of 50%, a pest or weed control at 125 g/ha ([6]; 125 g ai/ha, Preemergence, visual injury rating after approximately 10 d, read-out: Barnyardgrass plant response rating (0 to 100 scale, 0 is no effect, 100 is complete control)) of 70% and a pest or weed control at 500 g/ha ([6]; 500 g ai/ha, preemergence, visual injury rating about 10 d after treatment, 0 to 100 scale (0 no effect, 100 complete control), read-out: Barnyardgrass plant response rating) of 70%. For the same compound, the pest or weed control at 125 g/ha [7, 21] was 30%, the pest or weed control at 500 g/ha [7, 22] was 50% and the pest or weed control at 125 g/ha [8, 21] was 0%. The pest or weed control at 500 g/ha [8, 22] was 0%, the pest or weed control at 125 g/ha [9, 21] was 60% and the pest or weed control at 500 g/ha [9, 22] was 60%. The pest or weed control at 125 g/ha [10, 21] was 30%, the pest or weed control at 500 g/ha [10, 22] was 30% and the pest or weed control at 125 g/ha [11, 21] was 0%. The pest or weed control at 500 g/ha [11, 22] was 30%, the Corn plant response rating (crop injury, 0 = no effect, 100 = complete kill) at 125 g/ha [12, 21] was 0% and the Corn plant response rating (crop injury, 0 = no effect, 100 = complete kill) at 500 g/ha [12, 22] was 20%. The pest or weed control at 125 g/ha [13, 21] was 0%, the pest or weed control at 500 g/ha [13, 22] was 30% and the pest or weed control at 125 g/ha [14, 21] was 60%. The pest or weed control at 500 g/ha [14, 22] was 70%, the pest or weed control at 125 g/ha [15, 21] was 0% and the pest or weed control at 500 g/ha [15, 22] was 0%. It also gave a plant injury at 125 g/ha [16, 21] of 0%, a plant injury at 500 g/ha [16, 22] of 0% and a pest or weed control at 250 g/ha [17] of 0%. The pest or weed control at 250 g/ha [18] was 0%, the pest or weed control at 250 g/ha [19] was 0% and the pest or weed control at 250 g/ha [20] was 0%.
